Laboratory results as given in US20240287080A1 (IDEAYA Biosciences Inc., priority 2021, published 2024).

Target: T1, Pol theta (1-899) (Homo sapiens, UniProt O75417)
T1 construct: Pol theta (1-899) (5 nM) in assay buffer
Experiment: Pol theta ATPase activity, NADH oxidation-coupled enzymatic assay (ATPase NADH coupling: Standard Screening: hPolQ)
Assay type: biochemical
Conditions: Pol theta (1-899) 5 nM, NADH oxidation-coupled ATPase assay; compounds of Table 3
In short: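 NADH-coupled ATPase readout: 5 nM Pol theta (1-899) preincubated 15 min with 10-point compound series in Tris pH 7.80, KCl, MgCl2, DTT, BSA, Tween, glycerol, then 100 μM ATP, 300 nM 50-mer poly-dT ssDNA, NADH, PEP, LDH and PK added (stock levels). A340 followed 60 min; slopes fit four-parameter for IC50.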

T1 sequence (O75417 1-899): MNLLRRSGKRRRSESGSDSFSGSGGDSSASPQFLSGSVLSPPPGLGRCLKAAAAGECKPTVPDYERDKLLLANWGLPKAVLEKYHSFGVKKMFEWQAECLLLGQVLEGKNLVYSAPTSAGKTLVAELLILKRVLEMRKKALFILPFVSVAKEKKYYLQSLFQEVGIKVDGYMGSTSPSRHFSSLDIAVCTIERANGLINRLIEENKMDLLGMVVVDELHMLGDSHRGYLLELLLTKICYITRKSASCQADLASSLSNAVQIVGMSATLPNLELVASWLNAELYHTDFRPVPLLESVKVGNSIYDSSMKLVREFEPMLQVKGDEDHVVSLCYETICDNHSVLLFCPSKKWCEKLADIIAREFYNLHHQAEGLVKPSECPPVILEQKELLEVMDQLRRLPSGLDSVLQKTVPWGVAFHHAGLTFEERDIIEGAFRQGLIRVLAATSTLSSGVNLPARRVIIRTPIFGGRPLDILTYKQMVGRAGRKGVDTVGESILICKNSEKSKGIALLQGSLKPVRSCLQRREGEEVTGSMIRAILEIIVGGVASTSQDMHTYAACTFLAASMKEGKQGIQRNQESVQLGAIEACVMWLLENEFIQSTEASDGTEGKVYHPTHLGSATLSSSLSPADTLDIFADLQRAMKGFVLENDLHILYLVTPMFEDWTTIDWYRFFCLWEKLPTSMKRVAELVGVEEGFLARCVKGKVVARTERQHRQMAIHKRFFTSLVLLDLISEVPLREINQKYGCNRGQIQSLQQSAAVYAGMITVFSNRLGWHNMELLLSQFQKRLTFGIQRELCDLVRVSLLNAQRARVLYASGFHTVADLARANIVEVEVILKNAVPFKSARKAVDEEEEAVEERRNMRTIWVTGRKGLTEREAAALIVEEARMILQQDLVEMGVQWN

Structure (SMILES) | IC50
COc1nnc(NC(=O)c2cnc(C)cc2-c2ccc(F)cc2)s1 [Example 368, 4-(4-fluorophenyl)-N-(5-methoxy-1,3,4-thiadiazol-2-yl)-6-methylpyridine-3-carboxamide] | 1000 to 10000 nM
COc1cnc(Cl)cc1-c1cc(C)ncc1C(=O)Nc1nnc(O[C@H]2CCCN(C3CCOC3)C2)s1 (stereo in doubt) [Example 310, 2′-chloro-5′-methoxy-6-methyl-N-(5-(((S)-1-((S)-tetrahydrofuran-3-yl)piperidin-3-yl)oxy)-1,3,4-thiadiazol-2-yl)-[4,4′-bipyridine]-3-carboxamide] | ≤ 200 nM
COc1nnc(NC(=O)c2cnc(C)cc2-c2cnc3[nH]ccc3c2)s1 [Example 399, N-(5-methoxy-1,3,4-thiadiazol-2-yl)-6-methyl-4-{1H-pyrrolo[2,3-b]pyridin-5-yl}pyridine-3-carboxamide] | 1000 to 10000 nM
COc1cnc(C)cc1-c1cc(C)ncc1C(=O)Nc1nnc(OC(C)COCC(F)(F)F)s1 (stereo not drawn) [Example 241, 5′-methoxy-2′,6-dimethyl-N-(5-((1-(2,2,2-trifluoroethoxy)propan-2-yl)oxy)-1,3,4-thiadiazol-2-yl)-[4,4′-bipyridine]-3-carboxamide] | ≤ 200 nM
COc1nnc(NC(=O)c2cnc(C)cc2-c2cc(C)c([S@+](C)[O-])cc2OC)s1 (single isomer, unassigned) [Example 307] | 200 to 500 nM
COc1nnc(NC(=O)c2cnc(C)cc2-c2ccc(S(N)(=O)=O)cc2)s1 [Example 378, N-(5-methoxy-1,3,4-thiadiazol-2-yl)-6-methyl-4-(4-sulfamoylphenyl)pyridine-3-carboxamide] | 1000 to 10000 nM
COc1nnc(NC(=O)c2cnc(C)cc2-c2cncc(C(=O)NC3CC3)c2)s1 [Example 403, N5-cyclopropyl-N3′-(5-methoxy-1,3,4-thiadiazol-2-yl)-6′-methyl-[3,4′-bipyridine]-3′,5-dicarboxamide] | 1000 to 10000 nM
COc1nnc(NC(=O)c2cnc(C)cc2-c2cccc(F)c2)s1 [Example 421, 4-(3-fluorophenyl)-N-(5-methoxy-1,3,4-thiadiazol-2-yl)-6-methylpyridine-3-carboxamide] | 500 to 1000 nM
COc1nnc(NC(=O)c2cnc(C)cc2-c2ccc(-c3ccccc3)cc2)s1 [Example 370, 4-{[1,1′-biphenyl]-4-yl}-N-(5-methoxy-1,3,4-thiadiazol-2-yl)-6-methylpyridine-3-carboxamide] | 1000 to 10000 nM
COc1nnc(NC(=O)c2cnc(C)cc2-c2ccc(C#N)cc2)s1 [Example 365, 4-(4-cyanophenyl)-N-(5-methoxy-1,3,4-thiadiazol-2-yl)-6-methylpyridine-3-carboxamide] | 1000 to 10000 nM
COc1cnc(C)c(F)c1-c1cc(C)ncc1C(=O)Nc1nnc(O[C@@H]2CCC[C@H](O)C2)s1 (single isomer, unassigned) [Example 255] | ≤ 200 nM
COc1nnc(NC(=O)c2cnc(C)cc2-c2ccc(OC(F)F)cc2)s1 [Example 448, 4-[4-(difluoromethoxy)phenyl]-N-(5-methoxy-1,3,4-thiadiazol-2-yl)-6-methylpyridine-3-carboxamide] | 1000 to 10000 nM
COc1cnc(Cl)cc1-c1cc(C)ncc1C(=O)Nc1nnc(O[C@H]2CO[C@H]3OCC[C@H]32)s1 [Example 262, 2′-chloro-N-(5-(((3R,3aS,6aR)-hexahydrofuro[2,3-b]furan-3-yl)oxy)-1,3,4-thiadiazol-2-yl)-5′-methoxy-6-methyl-[4,4′-bipyridine]-3-carboxamide] | ≤ 200 nM
COc1nnc(NC(=O)c2cnc(C)cc2-c2cnc(C#N)nc2)s1 [Example 444, 4-(2-cyanopyrimidin-5-yl)-N-(5-methoxy-1,3,4-thiadiazol-2-yl)-6-methylnicotinamide] | 1000 to 10000 nM
CCc1cccc(-c2cc(C)ncc2C(=O)Nc2nnc(OC)s2)c1 [Example 383, 4-(3-ethylphenyl)-N-(5-methoxy-1,3,4-thiadiazol-2-yl)-6-methylpyridine-3-carboxamide] | 500 to 1000 nM
COc1nnc(NC(=O)c2cnc(C)cc2-c2cc(C)cc(C)c2)s1 [Example 358, 4-(3,5-dimethylphenyl)-N-(5-methoxy-1,3,4-thiadiazol-2-yl)-6-methylpyridine-3-carboxamide] | 500 to 1000 nM
COc1cnc(C)cc1-c1cc(C)ncc1C(=O)Nc1nnc(OC(CC(N)=O)C(F)(F)F)s1 (stereo not drawn) [Example 324, N-(5-((4-amino-1,1,1-trifluoro-4-oxobutan-2-yl)oxy)-1,3,4-thiadiazol-2-yl)-5′-methoxy-2′,6-dimethyl-[4,4′-bipyridine]-3-carboxamide] | ≤ 200 nM
COc1cnc(Br)cc1-c1cc(C)ncc1C(=O)Nc1nnc(O[C@@H]2CCC[C@H](O)C2)s1 (single isomer, unassigned) [Example 239] | ≤ 200 nM
COc1nnc(NC(=O)c2cnc(C)cc2-c2cccc3c2ccn3C)s1 [Example 482, N-(5-methoxy-1,3,4-thiadiazol-2-yl)-6-methyl-4-(1-methyl-1H-indol-4-yl)pyridine-3-carboxamide] | 1000 to 10000 nM

Same assay, conditions: Table 4; Pol theta (1-899) 5 nM, ATP, dT50 ssDNA

Structure (SMILES) | IC50
COc1cnc(Cl)cc1-c1cc(C)ncc1C(=O)Nc1nnc(OC(C)C)s1 [Example 6, 2′-chloro-N-(5-isopropoxy-1,3,4-thiadiazol-2-yl)-5′-methoxy-6-methyl-(4,4′-bipyridine)-3-carboxamide] | ≤ 200 nM
COc1cnc(Cl)cc1-c1cc(C)ncc1C(=O)Nc1nnc(OC2COC2)s1 [Example 13, 2′-chloro-5′-methoxy-6-methyl-N-(5-(oxetan-3-yloxy)-1,3,4-thiadiazol-2-yl)-(4,4′-bipyridine)-3-carboxamide] | ≤ 200 nM
COc1nnc(NC(=O)c2cnc(C)cc2-c2cc(Cl)ncc2OC(F)F)s1 [Example 48, 2′-chloro-5′-(difluoromethoxy)-N-(5-methoxy-1,3,4-thiadiazol-2-yl)-6-methyl-(4,4′-bipyridine)-3-carboxamide] | ≤ 200 nM
COc1nnc(NC(=O)c2cnc(C)cc2-c2c(F)cccc2OC(F)F)s1 [Example 32, 4-(2-(difluoromethoxy)-6-fluorophenyl)-N-(5-methoxy-1,3,4-thiadiazol-2-yl)-6-methylnicotinamide] | ≤ 200 nM
COc1cnc(Cl)cc1-c1cc(C)ncc1C(=O)Nc1nnc(O[C@H]2C[C@H](O)C2)s1 [Example 16, 2′-chloro-N-(5-((1r,3r)-3-hydroxycyclobutoxy)-1,3,4-thiadiazol-2-yl)-5′-methoxy-6-methyl-(4,4′-bipyridine)-3-carboxamide] | ≤ 200 nM

Same assay, conditions: Table 5; Pol theta (1-899) 5 nM, ATP, dT50 ssDNA

Structure (SMILES) | IC50
COc1cnc(Cl)cc1-c1cc(C)ncc1C(=O)Nc1nnc(O[C@@H]2CCC[C@@](C)(O)C2)s1 (single isomer, unassigned) [Example 182] | ≤ 200 nM
COc1cnc(Br)cc1-c1cc(C)ncc1C(=O)Nc1nnc(O[C@H]2CCOC2)s1 [Example 122, (S)-2′-bromo-5′-methoxy-6-methyl-N-(5-((tetrahydrofuran-3-yl)oxy)-1,3,4-thiadiazol-2-yl)-(4,4′-bipyridine)-3-carboxamide] | ≤ 200 nM
COc1cnc(Cl)cc1-c1cc(C)ncc1C(=O)Nc1nnc(O[C@H]2CC[C@@H]([C@H](C)O)CC2)s1 (single isomer, unassigned) [Example 213] | ≤ 200 nM
COc1cnc(Cl)cc1-c1cc(C)ncc1C(=O)Nc1nnc(O[C@H]2CC[C@H](OC)C2)s1 (racemic) [Example 149, rac-2′-chloro-5′-methoxy-N-(5-(((1R,3R)-3-methoxycyclopentyl)oxy)-1,3,4-thiadiazol-2-yl)-6-methyl-(4,4′-bipyridine)-3-carboxamide] | ≤ 200 nM
COc1cnc(Cl)cc1-c1cc(C)ncc1C(=O)Nc1nnc(O[C@H]2CO[C@H](C)C2)s1 (single isomer, unassigned) [Example 192] | ≤ 200 nM
COc1nnc(NC(=O)c2c[nH]nc2-c2cc(Cl)ncc2OC)s1 [Example 109, 3-(2-chloro-5-methoxypyridin-4-yl)-N-(5-methoxy-1,3,4-thiadiazol-2-yl)-1H-pyrazole-4-carboxamide] | 1000 to 10000 nM
COc1cnc(Br)cc1-c1cc(C)ncc1C(=O)Nc1nnc(O[C@H]2CC[C@H](O)CC2)s1 [Example 194, 2′-bromo-N-(5-(((1r,4r)-4-hydroxycyclohexyl)oxy)-1,3,4-thiadiazol-2-yl)-5′-methoxy-6-methyl-(4,4′-bipyridine)-3-carboxamide] | ≤ 200 nM
COc1cnc(Br)cc1-c1cc(C)ncc1C(=O)Nc1nnc(O[C@H]2CC[C@@](C)(O)CC2)s1 (single isomer, unassigned) [Example 222, 2′-bromo-N-(5-(((1s,4s)-4-hydroxy-4-methylcyclohexyl)oxy)-1,3,4-thiadiazol-2-yl)-5′-methoxy-6-methyl-(4,4′-bipyridine)-3-carboxamide] | ≤ 200 nM
Cc1cc(-c2cc(Cl)ncc2OC(F)F)c(C(=O)Nc2nnc(O[C@H]3CC[C@](C)(O)CC3)s2)cn1 (single isomer, unassigned) [Example 223, 2′-chloro-5′-(difluoromethoxy)-N-(5-(((1r,4r)-4-hydroxy-4-methylcyclohexyl)oxy)-1,3,4-thiadiazol-2-yl)-6-methyl-(4,4′-bipyridine)-3-carboxamide] | ≤ 200 nM
COc1cnc(Cl)cc1-c1cc(C)ncc1C(=O)Nc1nnc(O[C@@H]2CCC[C@](C)(O)C2)s1 (single isomer, unassigned) [Example 180] | 200 to 500 nM

Same assay, conditions: Table 5; values given as bound; Pol theta (1-899) 5 nM, ATP, dT50 ssDNA

Structure (SMILES) | IC50
COc1nnc(NC(=O)c2cnc(CN3CC(OC)C3)cc2-c2cc(Cl)ncc2OC)s1 [Example 144, 2′-chloro-5′-methoxy-N-(5-methoxy-1,3,4-thiadiazol-2-yl)-6-((3-methoxyazetidin-1-yl)methyl)-(4,4′-bipyridine)-3-carboxamide] | > 10000 nM
COc1nnc(NC(=O)c2cc(CO)ncc2-c2c(F)cccc2OC)s1 [Example 121, 5-(2-fluoro-6-methoxyphenyl)-2-(hydroxymethyl)-N-(5-methoxy-1,3,4-thiadiazol-2-yl)isonicotinamide] | > 10000 nM
